In US10206394B2, “Herbicidal compounds” (Syngenta Participations AG, priority 2014, dated 2019):
Like-named read-outs stand apart in the source and are kept apart here.

Columns and labels:
Experiment in all cases: Glasshouse assay for herbicidal activity (pre- and post-emergence), percentage phytotoxicity
Type in all cases: in vivo
[1] = test system: Alopecurus myosuroides (ALOMY); conditions: Alopecurus myosuroides
Method in brief: (§1)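 Seeds were sown in standard soil in pots and grown one day (pre-emergence) or about 12 days (post-emergence) before herbicide application. Plants were kept at 24/18 °C (warm-climate) or 20/16 °C (cool-climate) day/night, 16 h light, 65% humidity, watered twice daily, and damage was scored visually at 15 DAA (POST) or 20 DAA (PRE).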

[2] = test system: Avena fatua (AVEFA); conditions: Avena fatua
Method in brief: as §1

[3] = test system: Echinochloa crus-galli (ECHCG); conditions: Echinochloa crus-galli
Method in brief: as §1

[4] = test system: Lolium perenne (LOLPE); conditions: Lolium perenne
Method in brief: as §1

[5] = post-emergence, 360 h, post-emergence, 250 g/ha, 15 DAA, visual score (100%=total damage; 0%=no damage), read-out: ALOMY POST herbicidal activity (percentage phytotoxicity)
[6] = pre-emergence, 480 h, pre-emergence, 250 g/ha, 20 DAA, visual score (100%=total damage; 0%=no damage), read-out: ALOMY PRE herbicidal activity (percentage phytotoxicity)
[7] = post-emergence, 360 h, post-emergence, 250 g/ha, 15 DAA, visual score (100%=total damage; 0%=no damage), read-out: AVEFA POST herbicidal activity (percentage phytotoxicity)
[8] = pre-emergence, 480 h, pre-emergence, 250 g/ha, 20 DAA, visual score (100%=total damage; 0%=no damage), read-out: AVEFA PRE herbicidal activity (percentage phytotoxicity)
[9] = post-emergence, 360 h, post-emergence, 250 g/ha, 15 DAA, visual score (100%=total damage; 0%=no damage), read-out: ECHCG POST herbicidal activity (percentage phytotoxicity)
[10] = pre-emergence, 480 h, pre-emergence, 250 g/ha, 20 DAA, visual score (100%=total damage; 0%=no damage), read-out: ECHCG PRE herbicidal activity (percentage phytotoxicity)
[11] = post-emergence, 360 h, post-emergence, 250 g/ha, 15 DAA, visual score (100%=total damage; 0%=no damage), read-out: LOLPE POST herbicidal activity (percentage phytotoxicity)
[12] = pre-emergence, 480 h, pre-emergence, 250 g/ha, 20 DAA, visual score (100%=total damage; 0%=no damage), read-out: LOLPE PRE herbicidal activity (percentage phytotoxicity)
[13] = post-emergence, 360 h, 250 g/ha, post-emergence, 15 DAA, visual assessment (100%=total damage, 0%=no damage), read-out: Post-emergence herbicidal activity (percentage phytotoxicity) ALOMY POST
[14] = pre-emergence, 480 h, 250 g/ha, pre-emergence, 20 DAA, visual assessment (100%=total damage, 0%=no damage), read-out: Pre-emergence herbicidal activity (percentage phytotoxicity) ALOMY PRE
[15] = post-emergence, 360 h, 250 g/ha, post-emergence, 15 DAA, visual assessment (100%=total damage, 0%=no damage), read-out: Post-emergence herbicidal activity (percentage phytotoxicity) AVEFA POST
[16] = pre-emergence, 480 h, 250 g/ha, pre-emergence, 20 DAA, visual assessment (100%=total damage, 0%=no damage), read-out: Pre-emergence herbicidal activity (percentage phytotoxicity) AVEFA PRE
[17] = post-emergence, 360 h, 250 g/ha, post-emergence, 15 DAA, visual assessment (100%=total damage, 0%=no damage), read-out: Post-emergence herbicidal activity (percentage phytotoxicity) ECHCG POST
[18] = pre-emergence, 480 h, 250 g/ha, pre-emergence, 20 DAA, visual assessment (100%=total damage, 0%=no damage), read-out: Pre-emergence herbicidal activity (percentage phytotoxicity) ECHCG PRE
[19] = post-emergence, 360 h, 250 g/ha, post-emergence, 15 DAA, visual assessment (100%=total damage, 0%=no damage), read-out: Post-emergence herbicidal activity (percentage phytotoxicity) LOLPE POST
[20] = pre-emergence, 480 h, 250 g/ha, pre-emergence, 20 DAA, visual assessment (100%=total damage, 0%=no damage), read-out: Pre-emergence herbicidal activity (percentage phytotoxicity) LOLPE PRE
[21] = post-emergence, 360 h, POST-emergence, rate 250 g/ha, visual score 15 DAA (100%=total damage, 0%=no damage), read-out: Post-emergence herbicidal activity (percentage phytotoxicity) ALOMY POST
[22] = pre-emergence, 480 h, PRE-emergence, rate 250 g/ha, visual score 20 DAA (100%=total damage, 0%=no damage), read-out: Pre-emergence herbicidal activity (percentage phytotoxicity) ALOMY PRE
[23] = post-emergence, 360 h, POST-emergence, rate 250 g/ha, visual score 15 DAA (100%=total damage, 0%=no damage), read-out: Post-emergence herbicidal activity (percentage phytotoxicity) AVEFA POST
[24] = pre-emergence, 480 h, PRE-emergence, rate 250 g/ha, visual score 20 DAA (100%=total damage, 0%=no damage), read-out: Pre-emergence herbicidal activity (percentage phytotoxicity) AVEFA PRE
[25] = post-emergence, 360 h, POST-emergence, rate 250 g/ha, visual score 15 DAA (100%=total damage, 0%=no damage), read-out: Post-emergence herbicidal activity (percentage phytotoxicity) ECHCG POST
[26] = pre-emergence, 480 h, PRE-emergence, rate 250 g/ha, visual score 20 DAA (100%=total damage, 0%=no damage), read-out: Pre-emergence herbicidal activity (percentage phytotoxicity) ECHCG PRE
[27] = post-emergence, 360 h, POST-emergence, rate 250 g/ha, visual score 15 DAA (100%=total damage, 0%=no damage), read-out: Post-emergence herbicidal activity (percentage phytotoxicity) LOLPE POST
[28] = pre-emergence, 480 h, PRE-emergence, rate 250 g/ha, visual score 20 DAA (100%=total damage, 0%=no damage), read-out: Pre-emergence herbicidal activity (percentage phytotoxicity) LOLPE PRE

CCOC(=O)OC1=C(c2c(C)cc(-c3ncc(Cl)cn3)cc2C)C(=O)C(CC(=O)NC(C)(C)C)C1 (stereo not drawn) [Compound P4]
pest or weed control at 250 g/ha [1, 5]: 90%
pest or weed control at 250 g/ha [1, 6]: 90%
pest or weed control at 250 g/ha [2, 7]: 100%
pest or weed control at 250 g/ha [2, 8]: 90%
pest or weed control at 250 g/ha [3, 9]: 100%
pest or weed control at 250 g/ha [3, 10]: 100%
pest or weed control at 250 g/ha [4, 11]: 100%
pest or weed control at 250 g/ha [4, 12]: 100%

Cc1cc(-c2ncc(F)cc2F)cc(C)c1C1C(=O)CC(CC(=O)NOCc2ccccc2)C1=O (stereo not drawn) [Compound B402]
pest or weed control at 250 g/ha ([1]; post-emergence, 360 h, Rate 250 g/ha, post-emergence, visual assessment 15 DAA, 100%=total damage, 0%=no damage, read-out: Post-emergence herbicidal activity (percentage phytotoxicity) ALOMY POST): 90%
pest or weed control at 250 g/ha ([1]; pre-emergence, 480 h, Rate 250 g/ha, pre-emergence, visual assessment 20 DAA, 100%=total damage, 0%=no damage, read-out: Pre-emergence herbicidal activity (percentage phytotoxicity) ALOMY PRE): 60%
pest or weed control at 250 g/ha ([2]; post-emergence, 360 h, Rate 250 g/ha, post-emergence, visual assessment 15 DAA, 100%=total damage, 0%=no damage, read-out: Post-emergence herbicidal activity (percentage phytotoxicity) AVEFA POST): 100%
pest or weed control at 250 g/ha ([2]; pre-emergence, 480 h, Rate 250 g/ha, pre-emergence, visual assessment 20 DAA, 100%=total damage, 0%=no damage, read-out: Pre-emergence herbicidal activity (percentage phytotoxicity) AVEFA PRE): 70%
pest or weed control at 250 g/ha ([3]; post-emergence, 360 h, Rate 250 g/ha, post-emergence, visual assessment 15 DAA, 100%=total damage, 0%=no damage, read-out: Post-emergence herbicidal activity (percentage phytotoxicity) ECHCG POST): 100%
pest or weed control at 250 g/ha ([3]; pre-emergence, 480 h, Rate 250 g/ha, pre-emergence, visual assessment 20 DAA, 100%=total damage, 0%=no damage, read-out: Pre-emergence herbicidal activity (percentage phytotoxicity) ECHCG PRE): 80%
pest or weed control at 250 g/ha ([4]; post-emergence, 360 h, Rate 250 g/ha, post-emergence, visual assessment 15 DAA, 100%=total damage, 0%=no damage, read-out: Post-emergence herbicidal activity (percentage phytotoxicity) LOLPE POST): 90%
pest or weed control at 250 g/ha ([4]; pre-emergence, 480 h, Rate 250 g/ha, pre-emergence, visual assessment 20 DAA, 100%=total damage, 0%=no damage, read-out: Pre-emergence herbicidal activity (percentage phytotoxicity) LOLPE PRE): 80%

C=CCNC(=O)CC1CC(=O)C(c2c(C)cc(-c3ncc(F)cn3)cc2C)C1=O (stereo not drawn) [Compound B108]
pest or weed control at 250 g/ha [1, 13]: 100%
pest or weed control at 250 g/ha [1, 14]: 100%
pest or weed control at 250 g/ha [2, 15]: 100%
pest or weed control at 250 g/ha [2, 16]: 90%
pest or weed control at 250 g/ha [3, 17]: 100%
pest or weed control at 250 g/ha [3, 18]: 100%
pest or weed control at 250 g/ha [4, 19]: 100%
pest or weed control at 250 g/ha [4, 20]: 90%

Cc1cc(-c2ncc(Cl)cn2)cc(C)c1C1=C(OC(=O)c2ccc(F)cc2)CC(CC(=O)NC(C)(C)C)C1=O (stereo not drawn) [Compound P2]
pest or weed control at 250 g/ha [1, 5]: 100%
pest or weed control at 250 g/ha [1, 6]: 90%
pest or weed control at 250 g/ha [2, 7]: 100%
pest or weed control at 250 g/ha [2, 8]: 90%
pest or weed control at 250 g/ha [3, 9]: 100%
pest or weed control at 250 g/ha [3, 10]: 100%
pest or weed control at 250 g/ha [4, 11]: 100%
pest or weed control at 250 g/ha [4, 12]: 100%

Cc1cc(C)c(C2C(=O)CC(CC(=O)NC(C)(C)CCl)C2=O)c(C)c1 (stereo not drawn) [Compound B39]
pest or weed control at 250 g/ha [1, 13]: 80%
pest or weed control at 250 g/ha [1, 14]: 30%
pest or weed control at 250 g/ha [2, 15]: 70%
pest or weed control at 250 g/ha [2, 16]: 30%
pest or weed control at 250 g/ha [3, 17]: 50%
pest or weed control at 250 g/ha [3, 18]: 0%
pest or weed control at 250 g/ha [4, 19]: 60%
pest or weed control at 250 g/ha [4, 20]: 60%

C/C=C/c1cc(C)c(C2C(=O)CC(CC(=O)NCC3CC3)C2=O)c(CC)c1 (stereo not drawn) [Compound B196]
pest or weed control at 250 g/ha [1, 21]: 100%
pest or weed control at 250 g/ha [1, 22]: 100%
pest or weed control at 250 g/ha [2, 23]: 100%
pest or weed control at 250 g/ha [2, 24]: 80%
pest or weed control at 250 g/ha [3, 25]: 100%
pest or weed control at 250 g/ha [3, 26]: 100%
pest or weed control at 250 g/ha [4, 27]: 100%
pest or weed control at 250 g/ha [4, 28]: 100%

Cc1cc(-c2ncc(Cl)cc2F)cc(C)c1C1C(=O)CC(CC(=O)NCc2cccc(F)c2)C1=O (stereo not drawn) [Compound B129]
pest or weed control at 250 g/ha [1, 13]: 100%
pest or weed control at 250 g/ha [1, 14]: 90%
pest or weed control at 250 g/ha [2, 15]: 100%
pest or weed control at 250 g/ha [2, 16]: 50%
pest or weed control at 250 g/ha [3, 17]: 100%
pest or weed control at 250 g/ha [3, 18]: 70%
pest or weed control at 250 g/ha [4, 19]: 100%
pest or weed control at 250 g/ha [4, 20]: 90%

Cc1cc(-c2ccc(Cl)nn2)cc(C)c1C1C(=O)CC(CC(=O)NCc2cccs2)C1=O (stereo not drawn) [Compound A151]
pest or weed control at 250 g/ha ([1]; post-emergence, 360 h, Rate 250 g/ha, post-emergence, assessed visually 15 DAA, 100%=total damage, 0%=no damage, read-out: Post-emergence herbicidal activity (percentage phytotoxicity) ALOMY POST): 40%
pest or weed control at 250 g/ha ([1]; pre-emergence, 480 h, Rate 250 g/ha, pre-emergence, assessed visually 20 DAA, 100%=total damage, 0%=no damage, read-out: Pre-emergence herbicidal activity (percentage phytotoxicity) ALOMY PRE): 40%
pest or weed control at 250 g/ha ([2]; post-emergence, 360 h, Rate 250 g/ha, post-emergence, assessed visually 15 DAA, 100%=total damage, 0%=no damage, read-out: Post-emergence herbicidal activity (percentage phytotoxicity) AVEFA POST): 50%
pest or weed control at 250 g/ha ([2]; pre-emergence, 480 h, Rate 250 g/ha, pre-emergence, assessed visually 20 DAA, 100%=total damage, 0%=no damage, read-out: Pre-emergence herbicidal activity (percentage phytotoxicity) AVEFA PRE): 70%
pest or weed control at 250 g/ha ([3]; post-emergence, 360 h, Rate 250 g/ha, post-emergence, assessed visually 15 DAA, 100%=total damage, 0%=no damage, read-out: Post-emergence herbicidal activity (percentage phytotoxicity) ECHCG POST): 70%
pest or weed control at 250 g/ha ([3]; pre-emergence, 480 h, Rate 250 g/ha, pre-emergence, assessed visually 20 DAA, 100%=total damage, 0%=no damage, read-out: Pre-emergence herbicidal activity (percentage phytotoxicity) ECHCG PRE): 100%
pest or weed control at 250 g/ha ([4]; post-emergence, 360 h, Rate 250 g/ha, post-emergence, assessed visually 15 DAA, 100%=total damage, 0%=no damage, read-out: Post-emergence herbicidal activity (percentage phytotoxicity) LOLPE POST): 40%
pest or weed control at 250 g/ha ([4]; pre-emergence, 480 h, Rate 250 g/ha, pre-emergence, assessed visually 20 DAA, 100%=total damage, 0%=no damage, read-out: Pre-emergence herbicidal activity (percentage phytotoxicity) LOLPE PRE): 80%

C#CCN(C)C(=O)CC1CC(=O)C(c2c(C)cc(OCC(F)(F)F)cc2CC)C1=O (stereo not drawn) [Compound B222]
pest or weed control at 250 g/ha [1, 21]: 100%
pest or weed control at 250 g/ha [1, 22]: 100%
pest or weed control at 250 g/ha [2, 23]: 100%
pest or weed control at 250 g/ha [2, 24]: 90%
pest or weed control at 250 g/ha [3, 25]: 100%
pest or weed control at 250 g/ha [3, 26]: 100%
pest or weed control at 250 g/ha [4, 27]: 100%
pest or weed control at 250 g/ha [4, 28]: 100%
